This is an account of results in patent US10732092B2, “Analysis of single cell mechanical phenotyping for metastatic detection” (University of Maryland, College Park, priority 2015, dated 2020).

Test [1] has as its system NIH 3T3 cell line. The test is described as follows: Brillouin flow cytometry of CytoD-treated suspended cells (setup of FIG. 12). Format: cell-based. From the text:
FIG. 12 illustrates an exemplary embodiment of the current invention resulting from a novel combination of an epi-detection path to excite/collect Brillouin signal, a monitoring imaging modality, a microfluidic device (or other cell plating device), a Brillouin spectrometer and a computer with software that links all of these sub-components. A first incoming illuminating beam 1210 is focused onto one spot inside a microfluidic device 1230 by using a beam splitter 1211 and an objective lens 1212. The illuminating laser beam 1210 may be a laser beam. In one embodiment, the first incoming laser beam 1210 is focused into spot of 1 to 10 μm. The backward Brillouin scattering light is collected by the same objective lens 1212 and guided to a Brillouin spectrometer 1215 via the beam splitter 1211, a reflected mirror 1213, and a coupling lens 1214. The Brillouin spectrometer 1215 is a device that can measure the Brillouin frequency shift accurately. One example of the Brillouin spectrometer 1215 is disclosed in Scarcelli Polachech 2015 Nature Methods Above the microfluidic device 1230, there is a bright-field microscope consisting of a second light source 1220 (usually has a different wavelength from laser beam 1210), a beam splitter 1221, a tube lens 1222, an objective lens 1224, and a 2D image recording device 1225. The purpose of this microscope setup is to monitor the flowing status of the cells inside the microfluidic device 1230. In one embodiment, the microscope setup further contains a spectral filter 1223, which blocks the light from the laser beam 1210, but allows the light from a light source 1220 to pass. […]
In yet another embodiment, a second approach, named as image-guided alignment, may be used to align the flowing cell to the focused spot of the laser beam 1210. […] Suppose a cell 1630 is flowing along y-direction (from top to bottom), once it appears in the field of view, its location (x1) and the horizontal shift (x0-x1) with respect to the focused spot 1620 can be determined. […] In this case, all of the measured data points were used to plot the histogram graph in FIG. 17a. […]

Another test deals with F-actin. Particulars: attached cells treated with CytoD; cited from earlier work.
In another test the test system is adherent cells. The test is described as follows: Cytoskeletal stiffness of adherent cells treated with CytoD. Format: cell-based.
A further test deals with cells (nucleus). The test is described as follows: Brillouin and fluorescence 2D imaging of cells with and without CytoD treatment (setup of FIG. 21). Particulars: treated vs control group, FIGS. 23a, 23b. Format: cell-based. As for the experimental part: FIG. 21 illustrates a Brillouin spectroscopy setup according to another embodiment of the current invention. In this embodiment, a second optical modality is added to acquire a co-registered confocal fluorescence image of the cell simultaneously when the cell is probed by the Brillouin beam. The second optical modality may comprise a dichroic mirror 2127, a tube lens 2122, a pinhole mask 2126, and a photo-detector 2125. The dichroic mirror 2127 will let the laser beam 2110 and the Brillouin signal pass through but reflects the fluorescence light. Compared with the bright-field microscope of FIG. 12, the confocal configuration has better transverse and lateral optical resolution by rejecting fluorescence light from the out-of-focus plane. In practice, fluorescently labelled cells can be used to identify a sub-region of a cell (e.g., nucleus) and the focused spot of laser beam 2110 can be used to directly excite fluorescence emission. Then, the confocal configuration is used to detect the fluorescence emission light by a camera 2125. Based on the intensity of the fluorescence emission light, one can accurately determine the location of the focused spot (and thus the Brillouin signal) inside the cell so that the Brillouin signal can be assigned to a targeted point. […]
As an example of classifying cells using the embodiment of FIG. 21, effect of CytoD on the cells was analyzed. […]

Test [2] deals with NIH 3T3 fibroblast cells. The test is described as follows: Inhibition of actin filament, Brillouin-based label-free flow cytometry. Format: cell-based. The following applies: cytoD 2 ug/mL for 10 minutes; 232 treated cells; FIG. 33B. The method, then: (§1) Two drugs, cytochalasin D (cytoD) and nocodazole (Noco), were applied to 3T3 cells to inhibit the actin filament and microtubules filament, respectively. NIH 3T3 fibroblast cells purchased from American Type Culture Collection (ATCC) were used for all experiments. Cells were cultured following standard protocols. For inhibitation of microtubules filament, cells were first treated by Noco of 1 ug/mL for 30 minutes, and then harvested by trypsinization and re-suspended in a solution of phosphate-buffered saline (PBS) without Mg^2+ and Ca^2+ at a concentration of ˜0.1 million cells per ML before measurement. Due to the low concentration, few cells were captured by flowing. Instead, a single cell in suspension was imaged after it was delivered into the microfluidic devices. […] The Brillouin shift of the treated cell 3312 is 0.29 GHz higher, indicating a distinct stiffening of its nucleus. Considering the sensitivity of the instrument is ˜0.01 GHz, microtubules filament-inhibited cells were easily identified from normal cells based on the mechanical stiffening of the nucleus.
For inhibition of actin filament, cells were first treated by cytoD of 2 ug/mL for 10 minutes, and then harvested by trypsinization and re-suspended in a solution of phosphate-buffered saline (PBS) without Mg^2+ and Ca^2+ at a concentration of ˜1 million cells per mL before measurement. […]

In test [3] the test system is NIH 3T3 fibroblast cells. The test is described as follows: Inhibition of microtubules filament, Brillouin imaging of single suspended cell. Format: cell-based. The following applies: Noco 1 ug/mL for 30 minutes; single cell in suspension; FIG. 33A. The method, then:
as §1

The subject of test [4] is NIH 3T3 cell line. Nature of the test: Chromatin decondensation experiment, Brillouin mechanical cytometry of TSA-treated cells. The test is classed as cell-based. Particulars: TSA 100 ng/mL, 2 hours. The text has this: A vertically-polarized laser beam 2628 is first reflected by the polarized beam splitter (PBS) 2634 and focused into the center of a microfluidic channel 2624 from the bottom side by objective lens 2632. In one embodiment, a 11-mW single-mode linearly-polarized 532-nm cw laser (Torus, Laser Quantum) was used as a light source to excite Brillouin scattering. Due to the quarter-wave plate (QWP) 2626, the focused beam was circularly polarized. The backward scattered light was collected by the same objective lens 2632 and passed through the QWP 2626 again. The circularly-polarized light is eventually turned into horizontally-polarized one which is totally transmitted by the PBS 2634. […] The location of the focused Brillouin beam was pre-determined by removing the long-pass filter (LP) 2612. […] In one embodiment, a CCD camera 2610 and the Brillouin spectrometer 2638 were synchronized by a LabVIEW program so that the spectrometer's data can be assigned to the corresponding location of the measured sample. […] When a cell passes through the beam location (white dots indicated by the arrows), its Brillouin shift is measured. […]
Cells are cultured and re-suspended in a solution of phosphate-buffered saline (PBS) without Mg2+ and Ca2+. […] Cells without washing are then ready for fluorescence experiment. […]

`C=C1[C@@H](C)[C@H]2[C@H](Cc3ccccc3)NC(=O)[C@]23[C@H](OC(C)=O)/C=C/[C@@](C)(O)C(=O)[C@@H](C)C/C=C/[C@H]3[C@@H]1O` [CytoD, cytochalasin D]: the “Brillouin frequency shift of cytoplasm peaks” value in the test on NIH 3T3 cell line [1] (NIH 3T3, suspended after trypsinization, CytoD 0.5, 2, 5 ug/ml, FIGS. 20b-20e) is on record as “almost no change”. The “stiffness of the cells (average Brillouin frequency shift over the whole cell)” value in the test with NIH 3T3 cell line [1] (NIH 3T3, suspended in PBS, CytoD 0.5, 2 and 5 ug/ml, FIG. 20a) is “dose dependent effect”. For the same compound, the “Brillouin frequency shift of nucleus peak (nucleus stiffness)” value in the test with NIH 3T3 cell line [1] (NIH 3T3, suspended, increasing dose of CytoD 0.5, 2, 5 ug/ml, FIGS. 20b-20e) is recorded as “nucleus is getting softer”. In addition, the F-actin entry with F-actin is “dramatically reduced”. Further, the cytoskeletal stiffness entry in the test on adherent cells is “markedly reduced”. In addition, the “nucleus stiffness (Brillouin signal vs fluorescence intensity)” value with cells (nucleus) is reported as “much softened”. In addition, the “decrease of averaged Brillouin shift of the nucleus, treated group vs control group” value in the test with NIH 3T3 fibroblast cells [2] came out at 0.12 GHz.

Take `COC(=O)Nc1nc2ccc(C(=O)c3cccs3)cc2[nH]1` [Noco, nocodazole]: in the test with NIH 3T3 fibroblast cells [3], the “increase of averaged Brillouin shift of the nucleus, treated cell vs control” value was determined as 0.29 GHz.

As for `CC(/C=C/C(=O)NO)=C\[C@@H](C)C(=O)c1ccc(N(C)C)cc1` [TSA, trichostatin A], in the test on NIH 3T3 cell line [4] (control nucleus 7.80 GHz, 356 treated cells), the “Brillouin shift of the nucleus after treatment” value is 7.71 GHz. Also, the “Brillouin shift of the cytoplasm after treatment” value in the test on NIH 3T3 cell line [4] (same as control) was 7.56 GHz.
